By inhibition is commonly meant the percentage by which the read-out fell short of the control. High values mean a strong effect, low ones a weak effect.

SMILES strings stand for the structures.

The test has as its target human Autotaxin protein (Homo sapiens, UniProt Q13822). Briefly: Evaluation of the inhibitory activity against human Autotaxin protein (18:1 LysoPC substrate, choline assay kit, absorbance at 570 nm). Type of test: biochemical. Particulars: compound at 500nM; 2 hours at 37 °C; % inhibition = (1 - absorbance test group / absorbance control group) X 100. As to the method: Solutions of each compound synthesized (80 uM, 100% dimethyl sulfoxide) were sequentially diluted 5-fold with dimethyl sulfoxide to prepare 6 concentrations. Each concentration of the compound was diluted 2-fold with 1x test buffer (50 mM Tris-Cl (pH 8.0), 5 mM KCl, 1 mM CaCl2, 1 mM MgCl2, 140 mM NaCl, deionized water, 1 mg/mL BSA), and 1 uL (1.25% dimethyl sulfoxide) of this diluted mixture was dispensed into each well of a 96-well clear round-bottom plate. 9 uL of 1x test buffer was added, and 20 uL of 240 nM human autotaxin protein (buffer: 50 mM Tris-HCl, pH 8.0, with 150 mM sodium chloride and 20% glycerol) was added. 10 uL of sonicated 360 uM 18:1 LysoPC (diluted with 1x assay buffer) was added. The reaction was performed for 2 hours in a shaking incubator at 37 °C, and a secondary reaction mixture (choline assay kit, KA1662) (65 uL of 1x assay buffer: 1 uL of choline oxidase: 1 uL of dye probe) was prepared. 60 uL of the secondary reaction mixture was added to the plate where the reaction was performed, and incubated for 30 minutes in a shaker. The absorbance value was measured at a wavelength of 570 nm using a SpectraMax iD3 microplate reader. The percentage inhibition activity value (% inhibition) was calculated by the formula: (1 - absorbance value test group / absorbance value control group) X 100.
Regarding `O=C(O)C1CN(c2nnc(-c3cnc(NC4Cc5cc(F)c(F)cc5C4)nc3)o2)C1` [Example 50, 1-(5-(2-((5,6-difluoro-2,3-dihydro-1H-inden-2-yl)amino)pyrimidin-5-yl)-1,3,4-oxadiazol-2-yl)azetidine-3-carboxylic acid], the inhibition at 0.5 µM was found to be 14%.

`Cc1nc(NC2Cc3cc(F)c(F)cc3C2)ncc1-c1nnc(N2CCC(c3c[nH]nn3)C2)o1` (centres unmarked) [Example 16, 5-(5-(3-(1H-1,2,3-triazol-4-yl)pyrrolidin-1-yl)-1,3,4-oxadiazol-2-yl)-N-(5,6-difluoro-2,3-dihydro-1H-inden-2-yl)-4-methylpyrimidin-2-amine]: the inhibition at 0.5 µM was found to be 88.1%.

`Fc1cc2c(cc1F)CC(Nc1cnc(-c3nnc(N4CCC(c5c[nH]nn5)C4)o3)cn1)C2` (centres unmarked) [Example 14, 5-(5-(3-(1H-1,2,3-triazol-4-yl)pyrrolidin-1-yl)-1,3,4-oxadiazol-2-yl)-N-(5,6-difluoro-2,3-dihydro-1H-inden-2-yl)pyrazin-2-amine] yielded an inhibition at 0.5 µM of 23.3%.

Consider `Fc1cc2c(cc1F)CC(Nc1ncc(-c3nnc(N4CC(c5c[nH]nn5)C4)o3)cn1)C2` [Example 39, 5-(5-(3-(1H-1,2,3-triazol-4-yl)azetidin-1-yl)-1,3,4-oxadiazol-2-yl)-N-(5,6-difluoro-2,3-dihydro-1H-inden-2-yl)pyrimidin-2-amine], for which 0.5 µM produced 98% inhibition.

`Fc1cc2c(cc1F)CC(Nc1ncc(-c3nnc(N4CCC(c5c[nH]nn5)C4)o3)cn1)C2` (centres unmarked) [Example 3, 5-(5-(3-(1H-1,2,3-triazol-4-yl)pyrrolidin-1-yl)-1,3,4-oxadiazol-2-yl)-N-(5,6-difluoro-2,3-dihydro-1H-inden-2-yl)pyrimidin-2-amine]: the inhibition at 0.5 µM was 100%.

In turn, `O=C(CCc1cnc(NC2Cc3cc(F)c(F)cc3C2)nc1)N1CCC(c2c[nH]nn2)C1` (centres unmarked) [Example 10, 1-(3-(1H-1,2,3-triazol-4-yl)pyrrolidin-1-yl)-3-(2-((5,6-difluoro-2,3-dihydro-1H-inden-2-yl)amino)pyrimidin-5-yl)propan-1-one] showed an inhibition at 0.5 µM of 18.6%.

The compound `N#CC1CN(c2nnc(-c3cnc(NC4Cc5cc(F)c(F)cc5C4)nc3)o2)C1` [Example 57, 1-(5-(2-((5,6-difluoro-2,3-dihydro-1H-inden-2-yl)amino)pyrimidin-5-yl)-1,3,4-oxadiazol-2-yl)azetidine-3-carbonitrile] yielded an inhibition at 0.5 µM of 8.6%.

Turning to `FC1(c2c[nH]nn2)CN(c2nnc(-c3cnc(NC4Cc5ccc(Br)cc5C4)nc3)o2)C1` (centres unmarked) [Example 89, N-(5-bromo-2,3-dihydro-1H-inden-2-yl)-5-(5-(3-fluoro-3-(1H-1,2,3-triazol-4-yl)azetidin-1-yl)-1,3,4-oxadiazol-2-yl)pyrimidin-2-amine], the inhibition at 0.5 µM was determined as 84.9%.

Compound `O=c1[nH]nc(C2CN(c3nnc(-c4cnc(NC5Cc6cc(F)c(F)cc6C5)nc4)o3)C2)o1` [Example 66, 5-(1-(5-(2-((5,6-difluoro-2,3-dihydro-1H-inden-2-yl)amino)pyrimidin-5-yl)-1,3,4-oxadiazol-2-yl)azetidin-3-yl)-1,3,4-oxadiazol-2(3H)-one] registered an inhibition at 0.5 µM of 35.8%.

With `Cc1[nH]nnc1C1CN(c2nnc(-c3cnc(NC4Cc5cc(F)c(F)cc5C4)nc3)o2)C1` [Example 75, N-(5,6-difluoro-2,3-dihydro-1H-inden-2-yl)-5-(5-(3-(5-methyl-1H-1,2,3-triazol-4-yl)azetidin-1-yl)-1,3,4-oxadiazol-2-yl)pyrimidin-2-amine], testing at 0.5 µM gave an inhibition of 84.6%.

`CC1(c2c[nH]nn2)CN(C(=O)/C=C/c2cnc(NC3Cc4cc(F)c(F)cc4C3)nc2)C1` [Example 78, (E)-3-(2-((5,6-difluoro-2,3-dihydro-1H-inden-2-yl)amino)pyrimidin-5-yl)-1-(3-methyl-3-(1H-1,2,3-triazol-4-yl)azetidin-1-yl)prop-2-en-1-one] returned an inhibition at 0.5 µM of 99.1%.

`CN(c1ncc(-c2nnc(N3CC(c4c[nH]nn4)C3)o2)cn1)C1Cc2cc(F)c(F)cc2C1` [Example 88, 5-(5-(3-(1H-1,2,3-triazol-4-yl)azetidin-1-yl)-1,3,4-oxadiazol-2-yl)-N-(5,6-difluoro-2,3-dihydro-1H-inden-2-yl)-N-methylpyrimidin-2-amine] returned an inhibition at 0.5 µM of 10.5%.

Regarding `Fc1cc2c(cc1F)CC(Nc1ncc(-c3nnc(N4CC(c5nnn[nH]5)C4)o3)cn1)C2` [Example 68, 5-(5-(3-(1H-tetrazol-5-yl)azetidin-1-yl)-1,3,4-oxadiazol-2-yl)-N-(5,6-difluoro-2,3-dihydro-1H-inden-2-yl)pyrimidin-2-amine], testing at 0.5 µM gave an inhibition of 17.6%.

Compound `Clc1ccc(CCNc2ncc(-c3nnc(N4CCC(c5c[nH]nn5)C4)o3)cn2)cc1` (centres unmarked) [Example 92, 5-(5-(3-(1H-1,2,3-triazol-4-yl)pyrrolidin-1-yl)-1,3,4-oxadiazol-2-yl)-N-(4-chlorophenethyl)pyrimidin-2-amine] registered an inhibition at 0.5 µM of 85.5%.

On to `Fc1cc2c(cc1F)CC(Nc1ncc(-c3nnc(N4CC(F)(c5c[nH]nn5)C4)o3)cn1)C2` [Example 56, N-(5,6-difluoro-2,3-dihydro-1H-inden-2-yl)-5-(5-(3-fluoro-3-(1H-1,2,3-triazol-4-yl)azetidin-1-yl)-1,3,4-oxadiazol-2-yl)pyrimidin-2-amine], for which at 0.5 µM the inhibition was 85.2%.

`CC(C)(C)C(=O)OCn1cc(C2CN(c3nnc(-c4cnc(NC5Cc6cccnc6C5)nc4)o3)C2)nn1` (centres unmarked) [Example 73, (4-(1-(5-(2-((6,7-dihydro-5H-cyclopenta[b]pyridin-6-yl)amino)pyrimidin-5-yl)-1,3,4-oxadiazol-2-yl)azetidin-3-yl)-1H-1,2,3-triazol-1-yl)methyl pivalate] showed an inhibition at 0.5 µM of 1.2%.

Take `Fc1cc2c(cc1F)CC(Nc1ccc(-c3nnc(N4CC(c5c[nH]nn5)C4)o3)cn1)C2` [Example 54, 5-(5-(3-(1H-1,2,3-triazol-4-yl)azetidin-1-yl)-1,3,4-oxadiazol-2-yl)-N-(5,6-difluoro-2,3-dihydro-1H-inden-2-yl)pyridin-2-amine]: the inhibition at 0.5 µM came out at 23.4%.

In turn, `O=C(O)CC1CCN(c2nnc(-c3cnc(NC4Cc5cc(F)c(F)cc5C4)nc3)o2)C1` (centres unmarked) [Example 25, 2-(1-(5-(2-((5,6-difluoro-2,3-dihydro-1H-inden-2-yl)amino)pyrimidin-5-yl)-1,3,4-oxadiazol-2-yl)pyrrolidin-3-yl)acetic acid] came in with an inhibition at 0.5 µM of 1.8%.

Compound `Fc1cc2c(cc1F)CC(Nc1ncc(-c3nnc(N4CC(c5nnc(C(F)(F)F)o5)C4)o3)cn1)C2` [Example 58, N-(5,6-difluoro-2,3-dihydro-1H-inden-2-yl)-5-(5-(3-(5-(trifluoromethyl)-1,3,4-oxadiazol-2-yl)azetidin-1-yl)-1,3,4-oxadiazol-2-yl)pyrimidin-2-amine] came in with an inhibition at 0.5 µM of 1%.

`OC1CN(c2nnc(-c3cnc(NC4Cc5cc(F)c(F)cc5C4)nc3)o2)C1` [Example 49, 1-(5-(2-((5,6-difluoro-2,3-dihydro-1H-inden-2-yl)amino)pyrimidin-5-yl)-1,3,4-oxadiazol-2-yl)azetidin-3-ol]: the inhibition at 0.5 µM was 11%.

`Clc1cc(Cl)cc(CCNc2ncc(-c3nnc(N4CC(c5c[nH]nn5)C4)o3)cn2)c1` [Example 59, 5-(5-(3-(1H-1,2,3-triazol-4-yl)azetidin-1-yl)-1,3,4-oxadiazol-2-yl)-N-(3,5-dichlorophenethyl)pyrimidin-2-amine] gave an inhibition at 0.5 µM of 49.5%.

`CC(C)(C)C(=O)OCn1cc(C2CN(c3nnc(-c4cnc(NC5Cc6ccncc6C5)nc4)o3)C2)nn1` (centres unmarked) [Example 84, (4-(1-(5-(2-((6,7-dihydro-5H-cyclopenta[c]pyridin-6-yl)amino)pyrimidin-5-yl)-1,3,4-oxadiazol-2-yl)azetidin-3-yl)-1H-1,2,3-triazol-1-yl)methyl pivalate] yielded an inhibition at 0.5 µM of 1.1%.

The compound `CS(=O)(=O)OC1CN(c2nnc(-c3cnc(NC4Cc5cc(F)c(F)cc5C4)nc3)o2)C1` [Example 55, 1-(5-(2-((5,6-difluoro-2,3-dihydro-1H-inden-2-yl)amino)pyrimidin-5-yl)-1,3,4-oxadiazol-2-yl)azetidin-3-yl methanesulfonate] came in with an inhibition at 0.5 µM of 17.6%.

In the case of `Fc1cc2c(cc1F)CC(Nc1ncc(-c3cc(N4CCC(c5c[nH]nn5)C4)no3)cn1)C2` (centres unmarked) [Example 18, 5-(3-(3-(1H-1,2,3-triazol-4-yl)pyrrolidin-1-yl)isoxazol-5-yl)-N-(5,6-difluoro-2,3-dihydro-1H-inden-2-yl)pyrimidin-2-amine], the inhibition at 0.5 µM came to 95.3%.

In the case of `c1cnc2c(c1)CC(Nc1ncc(-c3nnc(N4CC(c5c[nH]nn5)C4)o3)cn1)C2` (centres unmarked) [Example 77, N-(5-(5-(3-(1H-1,2,3-triazol-4-yl)azetidin-1-yl)-1,3,4-oxadiazol-2-yl)pyrimidin-2-yl)-6,7-dihydro-5H-cyclopenta[b]pyridin-6-amine], testing at 0.5 µM gave an inhibition of 43.7%.

With `Fc1cc2c(cc1F)CC(Nc1ncc(-c3nnc(N4CCC(n5cncn5)C4)o3)cn1)C2` (centres unmarked) [Example 28, 5-(5-(3-(1H-1,2,4-triazol-1-yl)pyrrolidin-1-yl)-1,3,4-oxadiazol-2-yl)-N-(5,6-difluoro-2,3-dihydro-1H-inden-2-yl)pyrimidin-2-amine], testing at 0.5 µM gave an inhibition of 10.9%.
